Activity calls are given as the source filed them.
Assays:
[1] = molecular target: NADPH oxidase 1 (Homo sapiens, UniProt Q9Y5S8); test: Late-stage luminescence-based cell-based dose response assay to identify inhibitors of NADPH oxidase 1 (NOX1): Purchased analogs 2.; type: functional
[2] = molecular target: Photoreceptor-specific nuclear receptor (Homo sapiens, UniProt Q9Y5X4); test: NR2E3 inverse agonists, dose response, biochemical, TR-FRET (AID 463256); type: functional
[3] = molecular target: Peroxisome proliferator-activated receptor gamma/Nuclear receptor corepressor 2 (Homo sapiens, UniProt P37231+Q9Y618); test: Counterscreen for NR2E3 inverse agonists: TR-FRET-based biochemical high throughput dose response assay to identify inverse agonists of the interaction between peroxisome proliferator-activated receptor gamma (PPARg) and nuclear receptor co-repressor 2 (NCOR2).; type: functional
[4] = molecular target: T1, E3 ubiquitin-protein ligase XIAP (Homo sapiens, UniProt P98170); test: Counter Screen using XIAP-Bir3 for Chemical Antagonists of Bir1/2 domains of IAP-family anti-apoptotic proteins. [Related pubchem assays (depositor defined):AID1018, AID1449, AID1514, AID1638, AID1749, AID1750, AID488957, AID488963]
[5] = molecular target: T1, E3 ubiquitin-protein ligase XIAP; test: XIAP antagonists, biochemical, IAP family, fluorescence polarization (AID 1018); type: functional
[6] = molecular target: Lytic switch protein BZLF1 (Epstein-Barr virus (strain B95-8) (HHV-4) (Human herpesvirus 4), UniProt P03206); test: EBV ZTA inhibitors, dose response, counter-screen for EBNA-1 inhibitor project, biochemical, fluorescence polarization, Epstein-Barr virus, 1536-well (AID 2377); parameters: species or system human gammaherpesvirus 4;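 note: fluorescence polarization of Cy5-labelled ZRE DNA probe bound by purified Zta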
[7] = molecular target: Epstein-Barr nuclear antigen 1 (Epstein-Barr virus (strain B95-8) (HHV-4) (Human herpesvirus 4), UniProt P03211); test: EBNA-1 inhibitors, dose response, biochemical, fluorescence polarization, 1536-well (AID 2381); parameters: species or system human gammaherpesvirus 4;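 note: fluorescence polarization of a Cy5 DNA probe bound by EBNA-1 protein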
[8] = Luminescence Cell-Based Dose Confirmation to Identify Activators of 5'UTR Stem-Loop Driven Alpha-Synuclein mRNA Translation in H4 Neuroglioblastoma Cells. [Related pubchem assays: 1829 (Project Summary), 1814 (Primary HTS)]; type: functional
[9] = molecular target: Disintegrin and metalloproteinase domain-containing protein 17 (Homo sapiens, UniProt P78536); test: ADAM17 protease inhibitors, dose response, counter-screen for ADAM10 exosite inhibitor project, biochemical, quenched FRET substrate (AID 743253)
[10] = M. tuberculosis growth inhibition, HTS (AID 449762); type: functional
[11] = Luminescence Cell-Based Dose Response to Identify Activators of 5'UTR Stem-Loop Driven Prion Protein mRNA Translation in H4-C Neuroglioblastoma Cells. [Related pubchem assays: 1829 (Project Summary), 1814 (Primary HTS)]; type: functional
[12] = Luminescence Cell-Based Dose Response to Identify Activators of Luciferase Translation or Activity in H4-C Neuroglioblastoma Cells. [Related pubchem assays: 1829 (Project Summary), 1814 (Primary HTS)]; type: functional
[13] = Luminescence Cell-Based Dose Response HTS to Identify Activators of Luciferase Translation or Activity in H4 […] Cells. [Related pubchem assays: 1829 (Project Summary), 1814 (Primary HTS)]; type: functional
[14] = enhancers of respiration in Yfh1-depleted yeast, dose response, Friedreich's ataxia, plus single-dose screen (AID 1465); type: functional;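 note: yeast depleted of Yfh1p frataxin homolog grown on glycerol needing respiration; WST-1 tetrazolium dye reduction as measure of cellular dehydrogenase metabolic activity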
[15] = molecular target: T2, Estrogen receptor beta (Homo sapiens, UniProt Q92731); test: ERβ–SRC-3 coactivator interaction inhibitors, confirmation, orthogonal assay, biochemical, ELISA, streptavidin-HRP readout (AID 1060)
[16] = molecular target: Heat shock protein HSP 90-alpha (Homo sapiens, UniProt P07900); test: Luminescence-based dose response biochemical high throughput screening assay for inhibitors of the Heat Shock Protein 90 (HSP90). [Related pubchem assays: 1831 (Summary AID.), 1846 (Confirmation screen.), 1789 (Primary screen.)]
[17] = molecular target: T2, Estrogen receptor beta

T1 sequence (P98170 whole entry): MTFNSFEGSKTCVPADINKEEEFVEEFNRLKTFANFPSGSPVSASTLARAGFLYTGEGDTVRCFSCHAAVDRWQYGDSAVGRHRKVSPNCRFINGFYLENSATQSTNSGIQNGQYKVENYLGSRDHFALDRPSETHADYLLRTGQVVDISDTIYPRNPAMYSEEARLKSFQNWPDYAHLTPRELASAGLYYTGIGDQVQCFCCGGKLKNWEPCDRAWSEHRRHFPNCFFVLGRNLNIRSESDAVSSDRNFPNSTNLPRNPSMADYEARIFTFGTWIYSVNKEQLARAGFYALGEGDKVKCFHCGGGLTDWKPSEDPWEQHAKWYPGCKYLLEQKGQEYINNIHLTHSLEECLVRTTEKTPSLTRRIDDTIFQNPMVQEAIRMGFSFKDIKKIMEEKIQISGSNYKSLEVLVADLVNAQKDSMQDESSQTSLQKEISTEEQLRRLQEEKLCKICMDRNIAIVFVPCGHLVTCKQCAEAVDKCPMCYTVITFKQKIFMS
T2 sequence (Q92731 whole entry): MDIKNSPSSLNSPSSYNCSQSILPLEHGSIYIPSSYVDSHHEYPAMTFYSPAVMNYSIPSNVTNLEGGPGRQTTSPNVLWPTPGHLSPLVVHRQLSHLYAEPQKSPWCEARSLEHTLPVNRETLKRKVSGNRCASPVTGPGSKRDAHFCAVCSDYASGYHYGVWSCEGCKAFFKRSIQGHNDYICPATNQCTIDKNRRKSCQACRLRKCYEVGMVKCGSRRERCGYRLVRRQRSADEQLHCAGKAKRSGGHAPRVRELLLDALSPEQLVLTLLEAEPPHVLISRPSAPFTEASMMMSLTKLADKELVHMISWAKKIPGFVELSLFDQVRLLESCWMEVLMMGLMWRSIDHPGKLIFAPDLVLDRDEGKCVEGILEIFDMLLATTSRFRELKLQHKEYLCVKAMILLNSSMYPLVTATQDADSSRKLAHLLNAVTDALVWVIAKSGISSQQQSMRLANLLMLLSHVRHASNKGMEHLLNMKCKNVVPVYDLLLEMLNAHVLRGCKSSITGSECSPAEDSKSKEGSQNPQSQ
Chain of Disintegrin and metalloproteinase domain-containing protein 17 (P78536 whole entry, the tested form may be a part): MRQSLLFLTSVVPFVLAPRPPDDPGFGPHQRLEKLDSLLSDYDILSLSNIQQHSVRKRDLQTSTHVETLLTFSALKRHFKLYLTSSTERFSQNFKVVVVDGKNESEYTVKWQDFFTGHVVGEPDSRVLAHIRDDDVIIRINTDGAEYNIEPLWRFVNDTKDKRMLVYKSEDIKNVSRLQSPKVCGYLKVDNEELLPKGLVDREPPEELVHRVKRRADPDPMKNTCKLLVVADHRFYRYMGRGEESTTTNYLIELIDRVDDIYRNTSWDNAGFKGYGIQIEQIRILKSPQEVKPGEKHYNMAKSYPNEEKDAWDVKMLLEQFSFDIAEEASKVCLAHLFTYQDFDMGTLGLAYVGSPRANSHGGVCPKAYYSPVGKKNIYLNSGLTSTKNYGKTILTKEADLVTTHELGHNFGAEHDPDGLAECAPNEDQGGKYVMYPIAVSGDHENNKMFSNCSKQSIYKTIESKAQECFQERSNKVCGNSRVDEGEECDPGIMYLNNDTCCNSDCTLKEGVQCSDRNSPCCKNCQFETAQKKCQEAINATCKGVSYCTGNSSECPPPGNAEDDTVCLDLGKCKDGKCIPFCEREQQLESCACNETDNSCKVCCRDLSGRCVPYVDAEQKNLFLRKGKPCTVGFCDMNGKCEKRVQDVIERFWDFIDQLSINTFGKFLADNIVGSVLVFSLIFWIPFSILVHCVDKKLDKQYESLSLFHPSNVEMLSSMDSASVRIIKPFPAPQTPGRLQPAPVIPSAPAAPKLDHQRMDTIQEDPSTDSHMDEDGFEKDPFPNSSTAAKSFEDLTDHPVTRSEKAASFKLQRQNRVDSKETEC
Chain of Peroxisome proliferator-activated receptor gamma/Nuclear receptor corepressor 2 (P37231 whole entry): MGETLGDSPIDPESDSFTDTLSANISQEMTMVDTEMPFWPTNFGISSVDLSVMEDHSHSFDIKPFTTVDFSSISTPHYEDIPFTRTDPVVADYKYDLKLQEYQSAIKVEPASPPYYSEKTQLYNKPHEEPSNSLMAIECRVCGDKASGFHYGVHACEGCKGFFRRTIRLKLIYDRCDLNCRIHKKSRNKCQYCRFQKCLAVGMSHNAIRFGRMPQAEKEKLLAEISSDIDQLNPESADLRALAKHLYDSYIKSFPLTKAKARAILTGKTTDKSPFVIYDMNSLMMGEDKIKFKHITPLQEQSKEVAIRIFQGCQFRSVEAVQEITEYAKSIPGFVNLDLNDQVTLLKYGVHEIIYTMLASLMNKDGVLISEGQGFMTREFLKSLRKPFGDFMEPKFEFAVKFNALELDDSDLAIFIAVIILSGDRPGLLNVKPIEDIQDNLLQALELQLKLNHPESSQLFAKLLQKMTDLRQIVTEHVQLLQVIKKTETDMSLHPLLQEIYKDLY
Chain of Peroxisome proliferator-activated receptor gamma/Nuclear receptor corepressor 2 (Q9Y618 whole entry): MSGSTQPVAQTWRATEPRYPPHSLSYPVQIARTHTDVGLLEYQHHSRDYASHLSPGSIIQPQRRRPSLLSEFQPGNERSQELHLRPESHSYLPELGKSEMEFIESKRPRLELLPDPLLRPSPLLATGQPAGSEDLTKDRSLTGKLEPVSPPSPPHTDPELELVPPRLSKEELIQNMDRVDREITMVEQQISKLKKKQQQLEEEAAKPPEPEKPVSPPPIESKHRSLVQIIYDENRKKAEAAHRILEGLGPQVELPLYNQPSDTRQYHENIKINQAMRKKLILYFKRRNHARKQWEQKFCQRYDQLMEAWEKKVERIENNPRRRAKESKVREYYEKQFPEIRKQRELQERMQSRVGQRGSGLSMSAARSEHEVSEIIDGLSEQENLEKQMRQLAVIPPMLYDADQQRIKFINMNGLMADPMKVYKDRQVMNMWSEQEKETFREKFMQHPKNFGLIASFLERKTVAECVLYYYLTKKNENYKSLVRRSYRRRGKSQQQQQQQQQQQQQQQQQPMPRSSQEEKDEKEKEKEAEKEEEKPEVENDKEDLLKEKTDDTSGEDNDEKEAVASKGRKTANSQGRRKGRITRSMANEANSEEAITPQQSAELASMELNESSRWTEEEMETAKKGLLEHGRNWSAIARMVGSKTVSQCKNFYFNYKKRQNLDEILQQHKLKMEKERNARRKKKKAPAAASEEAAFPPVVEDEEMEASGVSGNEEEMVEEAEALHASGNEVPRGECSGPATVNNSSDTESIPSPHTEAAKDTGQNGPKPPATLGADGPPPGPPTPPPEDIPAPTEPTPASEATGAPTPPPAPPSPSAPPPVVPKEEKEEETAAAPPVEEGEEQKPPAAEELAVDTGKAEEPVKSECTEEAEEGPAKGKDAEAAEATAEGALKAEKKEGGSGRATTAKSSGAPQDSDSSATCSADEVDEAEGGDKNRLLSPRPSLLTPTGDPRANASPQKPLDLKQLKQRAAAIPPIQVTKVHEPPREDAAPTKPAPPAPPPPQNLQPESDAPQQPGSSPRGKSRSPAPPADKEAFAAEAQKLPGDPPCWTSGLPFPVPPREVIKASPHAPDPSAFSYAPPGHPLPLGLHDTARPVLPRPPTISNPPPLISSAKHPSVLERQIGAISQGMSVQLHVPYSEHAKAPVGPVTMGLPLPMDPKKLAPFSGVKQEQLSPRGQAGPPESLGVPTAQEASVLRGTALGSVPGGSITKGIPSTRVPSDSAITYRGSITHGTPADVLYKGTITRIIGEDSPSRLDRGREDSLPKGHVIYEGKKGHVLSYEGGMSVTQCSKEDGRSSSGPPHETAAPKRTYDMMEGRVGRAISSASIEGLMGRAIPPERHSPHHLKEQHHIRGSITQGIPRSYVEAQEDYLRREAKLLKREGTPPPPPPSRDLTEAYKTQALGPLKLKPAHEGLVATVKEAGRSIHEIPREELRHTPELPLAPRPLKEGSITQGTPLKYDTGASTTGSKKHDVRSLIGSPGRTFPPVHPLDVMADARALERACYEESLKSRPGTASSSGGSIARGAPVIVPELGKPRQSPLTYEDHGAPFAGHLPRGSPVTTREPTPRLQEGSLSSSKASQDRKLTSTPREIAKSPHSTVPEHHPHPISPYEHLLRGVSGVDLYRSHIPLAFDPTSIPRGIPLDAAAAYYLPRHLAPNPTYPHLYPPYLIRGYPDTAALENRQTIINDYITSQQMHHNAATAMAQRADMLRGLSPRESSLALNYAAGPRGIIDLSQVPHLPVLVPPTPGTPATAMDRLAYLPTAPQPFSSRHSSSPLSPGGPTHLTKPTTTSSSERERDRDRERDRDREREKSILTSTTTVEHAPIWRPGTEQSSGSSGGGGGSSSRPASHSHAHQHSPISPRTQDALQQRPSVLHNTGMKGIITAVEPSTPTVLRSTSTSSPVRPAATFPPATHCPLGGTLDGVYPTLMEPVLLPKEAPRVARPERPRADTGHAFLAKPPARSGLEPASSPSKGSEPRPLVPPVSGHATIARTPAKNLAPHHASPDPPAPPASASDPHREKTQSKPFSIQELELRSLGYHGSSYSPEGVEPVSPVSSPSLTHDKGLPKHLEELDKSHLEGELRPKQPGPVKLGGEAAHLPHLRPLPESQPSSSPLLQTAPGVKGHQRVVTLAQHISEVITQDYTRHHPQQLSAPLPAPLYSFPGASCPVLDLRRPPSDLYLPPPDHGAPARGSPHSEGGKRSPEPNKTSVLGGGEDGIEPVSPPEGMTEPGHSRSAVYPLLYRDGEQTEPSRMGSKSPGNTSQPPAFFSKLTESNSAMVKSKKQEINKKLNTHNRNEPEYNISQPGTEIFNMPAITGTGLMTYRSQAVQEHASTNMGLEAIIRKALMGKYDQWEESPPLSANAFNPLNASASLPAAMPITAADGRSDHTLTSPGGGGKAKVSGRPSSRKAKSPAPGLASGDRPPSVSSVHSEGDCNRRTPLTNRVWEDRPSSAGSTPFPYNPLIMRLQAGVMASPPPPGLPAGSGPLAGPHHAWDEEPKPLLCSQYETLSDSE

COc1ccc(/C=N/Nc2c(F)c(F)c(F)c(F)c2F)cc1
IC50 [1]: > 17 µM (not active)

CC1(C)Cc2ccccc2-c2nnc(SCC(=O)N3CCc4ccccc43)n21
IC50 [2]: 4.42 µM (active) | IC50 [3]: 7.95 µM (active)

O=C(Nc1ccccc1)c1cc(S(=O)(=O)N2CCSCC2)ccc1Cl
IC50 [4]: > 100 µM (inactive) | IC50 [5]: > 100 µM (not active)

Cc1ccc(/C=C2\SC(=S)N(CCC(=O)NNC(=O)c3ccc(O)cc3)C2=O)cc1
IC50 [6]: > 111 µM (not active) | IC50 [7]: 11.6 µM (not active)

C(=C\c1ccccc1)/C=N/Nc1nc2ccccc2s1
EC50 [8]: 0.366 µM (active) | IC50 [9]: > 69.5 µM (inactive) | IC50 [10]: > 100 µM (active) | EC50 [11]: 0.349 µM (active) | EC50 [12]: 0.289 µM (active) | EC50 [13]: < 0.1 µM (inconclusive)

CCCOc1ccc(C2NC(S)=NC(c3ccccc3)=C2C(=O)Nc2ccc(C)cc2)cc1OC (configuration not stated)
EC50 [14]: > 100 µM (active)

Cc1nc2cc(C(=O)O)ccc2[nH]1
IC50 [15]: 99.5 µM (not active) | IC50 [16]: 7.21 µM (active) | IC50 [17]: 24.7 µM (active)

Reference: ChEMBL document CHEMBL1201862, “PubChem BioAssay data set” (2004)
